These results are taken from US20250340575A1, “4-AMINOPYRROLO[2,1-F][1,2,4]TRIAZINES AND PREPARATION AND USES THEREOF” (Biosplice Therapeutics, Inc., priority 2024, published 2025).

The experiment addresses recombinant DYRK1A kinase (Homo sapiens, UniProt Q13627). The experiment can be described thus: DYRK1A kinase assay (Ser/Thr 18 peptide Z-lyte FRET). The experiment is classed as biochemical. The conditions noted are these: DYRK1A 0.25 μg/mL, ATP 15 μM, Ser/Thr peptide 18 4 μM, one hour at room temperature, 11-point dose-response from 10 μM.

Consider `Nc1nc(N[C@H]2CCN(C3COC3)C[C@H]2F)nn2cc(F)c(-c3ccc4nnn(CC(F)F)c4n3)c12` [Compound 260, 5-(3-(2,2-Difluoroethyl)-3H-[1,2,3]triazolo[4,5-b]pyridin-5-yl)-6-fluoro-N^2-((3R,4S)-3-fluoro-1-(oxetan-3-yl)piperidin-4-yl)pyrrolo[2,1-f][1,2,4]triazine-2,4-diamine], for which the IC50 was determined as 1.8 nM.
In the case of `C[C@]1(O)CC[C@H](Nc2nc(N)c3c(-c4ccc5ncn(CCF)c5n4)ccn3n2)CC1` [Compound 112, (1r,4r)-4-((4-Amino-5-(3-(2-fluoroethyl)-3H-imidazo[4,5-b]pyridin-5-yl)pyrrolo[2,1-f][1,2,4]triazin-2-yl)amino)-1-methylcyclohexan-1-ol], the IC50 was 1.2 nM.
Turning to `Nc1nc(N[C@@H]2CCN(C3COC3)C[C@@H]2F)nn2ccc(-c3ccc4ncn(CC(F)(F)F)c4n3)c12` [Compound 128, N^2-((3S,4R)-3-Fluoro-1-(oxetan-3-yl)piperidin-4-yl)-5-(3-(2,2,2-trifluoroethyl)-3H-imidazo[4,5-b]pyridin-5-yl)pyrrolo[2,1-f][1,2,4]triazine-2,4-diamine], the IC50 is 1.4 nM.
In the case of `CNc1nc(N[C@@H]2CCN(C(C)=O)CC2(F)F)nn2cc(F)c(-c3ccc4nnn(CC(F)F)c4n3)c12` [Compound 293, (R)-1-(4-((5-(3-(2,2-Difluoroethyl)-3H-[1,2,3]triazolo[4,5-b]pyridin-5-yl)-6-fluoro-4-(methylamino)pyrrolo[2,1-f][1,2,4]triazin-2-yl)amino)-3,3-difluoropiperidin-1-yl)ethan-1-one], the IC50 amounted to 1.9 nM.
Regarding `CC(=O)N1CC[C@@H](Nc2nc(N)c3c(-c4ccc5ncn(CCF)c5n4)ccn3n2)C(F)(F)C1` [Compound 118, (R)-1-(4-((4-Amino-5-(3-(2-fluoroethyl)-3H-imidazo[4,5-b]pyridin-5-yl)pyrrolo[2,1-f][1,2,4]triazin-2-yl)amino)-3,3-difluoropiperidin-1-yl)ethan-1-one], the IC50 was found to be 0.5 nM.
`CNc1nc(N[C@H]2CCN(C(C)=O)C[C@H]2F)nn2ccc(-c3ccc4nc(C)n(C(F)F)c4n3)c12` [Compound 134]: the IC50 stood at 5 nM.
With `CNc1nc(N[C@H]2CCN(C(C)=O)C[C@H]2F)nn2cc(F)c(-c3ccc4nnn(CCF)c4n3)c12` [Compound 249, 1-((3R,4S)-3-Fluoro-4-((6-fluoro-5-(3-(2-fluoroethyl)-3H-[1,2,3]triazolo[4,5-b]pyridin-5-yl)-4-(methylamino)pyrrolo[2,1-f][1,2,4]triazin-2-yl)amino)piperidin-1-yl)ethan-1-one], the IC50 was found to be 1.9 nM.
For `CC(=O)N1CC[C@H](Nc2nc(N)c3c(-c4ccc5nnn(CC(F)F)c5n4)c(F)cn3n2)[C@H](F)C1` [Compound 258, 1-((3R,4S)-4-((4-amino-5-(3-(2,2-difluoroethyl)-3H-[1,2,3]triazolo[4,5-b]pyridin-5-yl)-6-fluoropyrrolo[2,1-f][1,2,4]triazin-2-yl)amino)-3-fluoropiperidin-1-yl)ethan-1-one], the IC50 is 1.3 nM.
`CNc1nc(N[C@@H]2CCN(C(C)=O)CC2(F)F)nn2cc(F)c(-c3ccc4nccn4n3)c12` [Compound 56, (R)-1-(3,3-Difluoro-4-((6-fluoro-5-(imidazo[1,2-b]pyridazin-6-yl)-4-(methylamino)pyrrolo[2,1-f][1,2,4]triazin-2-yl)amino)piperidin-1-yl)ethan-1-one]: the IC50 was 1.4 nM.
With `CN1CC[C@H](Nc2nc(N)c3c(-c4ccc5ncn(CC(F)(F)F)c5n4)ccn3n2)[C@H](F)C1` [Compound 125, N^2-((3R,4S)-3-Fluoro-1-methylpiperidin-4-yl)-5-(3-(2,2,2-trifluoroethyl)-3H-imidazo[4,5-b]pyridin-5-yl)pyrrolo[2,1-f][1,2,4]triazine-2,4-diamine], the IC50 came out at 1.7 nM.
As for `CNc1nc(N[C@@H]2CCN(C3COC3)CC2(F)F)nn2ccc(-c3ccc4nc(C)n(CCF)c4n3)c12` [Compound 160, (R)—N^2-(3,3-Difluoro-1-(oxetan-3-yl)piperidin-4-yl)-5-(3-(2-fluoroethyl)-2-methyl-3H-imidazo[4,5-b]pyridin-5-yl)-N^4-methylpyrrolo[2,1-f][1,2,4]triazine-2,4-diamine], the figure is 2.2 nM.
For the compound `CNc1nc(N[C@@H]2CCN(C)CC2(F)F)nn2cc(F)c(-c3ccc4nc(C)n(CCF)c4n3)c12` [Compound 165, (R)—N^2-(3,3-Difluoro-1-methylpiperidin-4-yl)-6-fluoro-5-(3-(2-fluoroethyl)-2-methyl-3H-imidazo[4,5-b]pyridin-5-yl)-N^4-methylpyrrolo[2,1-f][1,2,4]triazine-2,4-diamine], the IC50 worked out at 2.3 nM.
Consider `CN1CC[C@H](Nc2nc(N)c3c(-c4ccc5ncn(CC(F)F)c5n4)ccn3n2)[C@H](F)C1` [Compound 120, 5-(3-(2,2-Difluoroethyl)-3H-imidazo[4,5-b]pyridin-5-yl)-N^2-((3R,4S)-3-fluoro-1-methylpiperidin-4-yl)pyrrolo[2,1-f][1,2,4]triazine-2,4-diamine], for which the IC50 was 0.7 nM.
Regarding `CNc1nc(N[C@@H]2CCN(C(=O)CO)CC2(F)F)nn2ccc(-c3ccc4nc(C)n(CC(F)F)c4n3)c12` [Compound 175, (R)-1-(4-((5-(3-(2,2-Difluoroethyl)-2-methyl-3H-imidazo[4,5-b]pyridin-5-yl)-4-(methylamino)pyrrolo[2,1-f][1,2,4]triazin-2-yl)amino)-3,3-difluoropiperidin-1-yl)-2-hydroxyethan-1-one], the IC50 turned out to be 1.3 nM.
With `CNc1nc(N[C@@H]2CCN(C)CC2(F)F)nn2cc(F)c(-c3ccc4nnn(CC(F)F)c4n3)c12` [Compound 291, (R)—N^2-(3,3-Difluoro-1-methylpiperidin-4-yl)-5-(3-(2,2-difluoroethyl)-3H-[1,2,3]triazolo[4,5-b]pyridin-5-yl)-6-fluoro-N^4-methylpyrrolo[2,1-f][1,2,4]triazine-2,4-diamine], the IC50 was 1.2 nM.
With `CNc1nc(N[C@@H]2CCN(C(C)=O)CC2(F)F)nn2cc(F)c(-c3ccc4nc(C)n(CCF)c4n3)c12` [Compound 166, (R)-1-(3,3-Difluoro-4-((6-fluoro-5-(3-(2-fluoroethyl)-2-methyl-3H-imidazo [4,5-b]pyridin-5-yl)-4-(methylamino)pyrrolo[2,1-f][1,2,4]triazin-2-yl)amino)piperidin-1-yl)ethan-1-one], the IC50 is 2.9 nM.
Turning to `CNc1nc(N[C@H]2CCN(C(C)=O)C[C@H]2F)nn2ccc(-c3ccc4nnn(CCCF)c4n3)c12` [Compound 335, 1-((3R,4S)-3-Fluoro-4-((5-(3-(3-fluoropropyl)-3H-[1,2,3]triazolo[4,5-b]pyridin-5-yl)-4-(methylamino)pyrrolo[2,1-f][1,2,4]triazin-2-yl)amino)piperidin-1-yl)ethan-1-one], the IC50 came out at 3.4 nM.
The figure for `CNc1nc(N[C@@H]2CCN(C3COC3)CC2(F)F)nn2cc(F)c(-c3ccc4nc(C)n(CCF)c4n3)c12` [Compound 168, (R)—N^2-(3,3-Difluoro-1-(oxetan-3-yl)piperidin-4-yl)-6-fluoro-5-(3-(2-fluoroethyl)-2-methyl-3H-imidazo[4,5-b]pyridin-5-yl)-N^4-methylpyrrolo[2,1-f][1,2,4]triazine-2,4-diamine] is 1.4 nM.
